PMC7217150, “Synthesis, Modification, and Biological Evaluation of a Library of Novel Water‐Soluble Thiopyridone‐Based Organometallic Complexes and Their Unexpected (Biological) Behavior” (Chemistry (Weinheim an Der Bergstrasse, Germany), 2020)
Where two headings read alike, the source gives them in different places.

Key:
SW480 cells = settings: ICP‐MS, 2 h exposure
[1] = pH 7.2
Description: Stock solutions containing the desired complex in DMSO (5 mM) were diluted with phosphate buffer (pH 7.2) to a final concentration of […] compound in 1 % DMSO/20 mM buffer and directly analyzed by four different isocratic UHPLC runs (Δ=5 %). The lipophilicity parameters logkw and lipophilicity indices φ0 were calculated according to literature.7, 37

CH1/PA‐1 [2] = settings: CH1/PA‐1 multicellular spheroids, 96 h drug exposure
Description: (§1) A549, CH1/PA‐1 and SW480 cells were grown in MEM supplemented with 10 % fetal calf serum (FCS; from Biowest), 1 mM sodium pyruvate, 4 mM L‐glutamine and 1 % v/v nonessential amino acids (from 100×solution) and L‐glutamine. HCT‐116 cells were maintained in McCoy's 5a medium supplemented with 10 % FCS and L‐glutamine. Adherent monolayer cultures were grown in 75 cm^2 flasks. For spheroid culture, A549, CH1/PA‐1 and HCT‐116 cells were harvested from culture flasks by trypsinization, resuspended in their respective supplemented medium and seeded in ultra‐low attachment round‐bottom 96‐well plates (Corning Costar) at a density of 500 viable cells per well. Plates were incubated for 96 h to allow spheroid formation prior to use for the tests. All cultures were incubated in a humidified incubator at 37 °C with 5 % CO2.
(§2) Cytotoxicity in multicellular spheroids was determined by the fluorimetric resazurin assay. […] After incubation for 96 h, 20 μL of a 440 μM resazurin sodium salt solution in PBS were added to each well, and the plates were incubated for further 16 h. Fluorescence was measured with a Synergy HT reader (BioTek) with an excitation wavelength of 530 nm and emission wavelength of 590 nm. For both assays, at least three independent experiments (or two in case of poor activity) were performed, each with triplicates per concentration level, and the 50 % inhibitory concentrations (IC50) relative to untreated controls were interpolated from concentration‐effect curves.

A549 [3] = settings: A549 multicellular spheroids, 96 h drug exposure
Description: as §1, §2

HCT‐116 = HCT‐116 multicellular spheroids, 96 h drug exposure
Description: as §1, §2

CH1/PA‐1 [4] = experiment: MTT cytotoxicity assay, monolayer culture; type: cell-based, human; settings: CH1/PA‐1, MTT assay, exposure time 96 h, means ± SDs
SW480 [5] = experiment: MTT cytotoxicity assay, monolayer culture; type: cell-based, human
A549 [6] = experiment: MTT cytotoxicity assay, monolayer culture; type: cell-based, human; settings: exposure time 96 h, means ± SDs
CH1/PA‐1 [7] = experiment: Cell cycle distribution, flow cytometry with propidium iodide; type: cell-based, human; settings: for Cell cycle distribution G1, % / Cell cycle distribution G2/M, % / Cell cycle distribution S, %: 24 h, mean ± SD; for Relative change in cell cycle distribution G1, % / Relative change in cell cycle distribution G2/M, % / Relative change in cell cycle distribution S, %: difference to untreated control
Method in brief: (§3)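 CH1/PA-1 and SW480 cells were allowed to attach for 24 h, then exposed continuously to compounds for 24 h at 37 °C. Nuclei were stained overnight at 4 °C with propidium iodide (50 μg mL^−1) in Triton/citrate buffer. 5×10^3 cells were analysed by flow cytometry, with G1/S/G2/M fractions fitted by the Watson Pragmatic model.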

SW480 [8] = experiment: as above; type: cell-based, human; settings: for Cell cycle distribution G1, % / Cell cycle distribution G2/M, % / Cell cycle distribution S, %: 24 h, mean ± SD; for Relative change in cell cycle distribution G1, % / Relative change in cell cycle distribution G2/M, % / Relative change in cell cycle distribution S, %: difference to untreated control
Method in brief: as §3

[9] = system: human cancer cell lines CH1/PA‐1, SW480, A549; settings: tested cancer cell lines
[10] = SW480, MTT assay, exposure time 96 h, means ± SDs

Cc1c([O-])c(=S)ccn1C.Cc1ccc(C(C)C)cc1.[Cl-].[Ru+2] [Compound 3 a, Chlorido[1,2‐dimethyl‐3‐oxo‐κO‐pyridine‐4(1H)‐thionato‐κS](η^6‐p‐cymene)‐ruthenium(II)]
Cellular accumulation (SW480 cells; 50 μM): 21±5 fg/cell | φ0 (chromatographic lipophilicity index) [1]: 5.51 | IC50 (CH1/PA‐1 [2]): 267 ± 14 µM | IC50 (A549 [3]): > 400 µM | IC50 (HCT‐116): > 400 µM | IC50 (CH1/PA‐1 [4]): > 200 µM | IC50 (SW480 [5]; [10]): 55 ± 18 µM | IC50 (SW480 [5]; SW480, as listed in Table 3): 54.6 ± 18.4 µM | IC50 (A549 [6]): > 200 µM

Chlorido[1‐benzyl‐2‐methyl‐3‐oxo‐κO‐pyridine‐4(1H)‐thionato‐κS](η^5‐1,2,3,4,5‐pentamethylcyclopentadienyl)rhodium(III) [Compound 5 c]
Cell cycle distribution G1, % (CH1/PA‐1 [7]; CH1/PA-1, 1.25 µM): 40 ± 14% | Cell cycle distribution G2/M, % (CH1/PA‐1 [7]; CH1/PA-1, 1.25 µM): 22 ± 7% | Cell cycle distribution S, % (CH1/PA‐1 [7]; CH1/PA-1, 1.25 µM): 38 ± 7% | Relative change in cell cycle distribution G1, % (CH1/PA‐1 [7]; CH1/PA-1, 1.25 µM): 0% | Relative change in cell cycle distribution G2/M, % (CH1/PA‐1 [7]; CH1/PA-1, 1.25 µM): -2% | Relative change in cell cycle distribution S, % (CH1/PA‐1 [7]; CH1/PA-1, 1.25 µM): 2% | Cell cycle distribution G1, % (CH1/PA‐1 [7]; CH1/PA-1, 2.5 µM): 34 ± 5% | Cell cycle distribution G2/M, % (CH1/PA‐1 [7]; CH1/PA-1, 2.5 µM): 24 ± 4% | Cell cycle distribution S, % (CH1/PA‐1 [7]; CH1/PA-1, 2.5 µM): 42 ± 3% | Relative change in cell cycle distribution G1, % (CH1/PA‐1 [7]; CH1/PA-1, 2.5 µM): -6% | Relative change in cell cycle distribution G2/M, % (CH1/PA‐1 [7]; CH1/PA-1, 2.5 µM): 0% | Relative change in cell cycle distribution S, % (CH1/PA‐1 [7]; CH1/PA-1, 2.5 µM): 6% | Cell cycle distribution G1, % (CH1/PA‐1 [7]; CH1/PA-1, 5 µM): 30 ± 10% | Cell cycle distribution S, % (CH1/PA‐1 [7]; CH1/PA-1, 5 µM): 42 ± 6% | Relative change in cell cycle distribution G1, % (CH1/PA‐1 [7]; CH1/PA-1, 5 µM): -10% | Relative change in cell cycle distribution G2/M, % (CH1/PA‐1 [7]; CH1/PA-1, 5 µM): 4% | Relative change in cell cycle distribution S, % (CH1/PA‐1 [7]; CH1/PA-1, 5 µM): 6% | decrease in G1 phase (CH1/PA‐1 [7]; CH1/PA‐1 cells, 2.5 μM): 6% | Cell cycle distribution G1, % (SW480 [8]; SW480, 2.5 µM): 44 ± 10% | Cell cycle distribution G2/M, % (SW480 [8]; SW480, 2.5 µM): 20 ± 6% | Cell cycle distribution S, % (SW480 [8]; SW480, 2.5 µM): 36 ± 1% | Relative change in cell cycle distribution G1, % (SW480 [8]; SW480, 2.5 µM): -4% | Relative change in cell cycle distribution G2/M, % (SW480 [8]; SW480, 2.5 µM): 1% | Relative change in cell cycle distribution S, % (SW480 [8]; SW480, 2.5 µM): 3% | Cell cycle distribution G1, % (SW480 [8]; SW480, 5 µM): 44 ± 5% | Cell cycle distribution G2/M, % (SW480 [8]; SW480, 5 µM): 17 ± 4% | Cell cycle distribution S, % (SW480 [8]; SW480, 5 µM): 39 ± 1% | Relative change in cell cycle distribution G1, % (SW480 [8]; SW480, 5 µM): -4% | Relative change in cell cycle distribution G2/M, % (SW480 [8]; SW480, 5 µM): -2% | Relative change in cell cycle distribution S, % (SW480 [8]; SW480, 5 µM): 6% | Cell cycle distribution G1, % (SW480 [8]; SW480, 10 µM): 50 ± 2% | Cell cycle distribution G2/M, % (SW480 [8]; SW480, 10 µM): 16 ± 5% | Cell cycle distribution S, % (SW480 [8]; SW480, 10 µM): 34 ± 5% | Relative change in cell cycle distribution G1, % (SW480 [8]; SW480, 10 µM): 2% | Relative change in cell cycle distribution G2/M, % (SW480 [8]; SW480, 10 µM): -3% | Relative change in cell cycle distribution S, % (SW480 [8]; SW480, 10 µM): 1% | decrease in G1 phase (SW480 [8]; SW480 cells, at applicable concentrations): < 9% | Cellular accumulation (SW480 cells; 20 μM): 855±66 fg/cell | IC50 values, in words [9]: high nanomolar range | IC50 (CH1/PA‐1 [2]): 59 ± 10 µM | IC50 (A549 [3]): 79 ± 5 µM | IC50 (HCT‐116): 62 ± 1 µM | IC50 (CH1/PA‐1 [4]): 0.37 ± 0.04 µM | IC50 (SW480 [5]; [10]): 0.28 ± 0.02 µM | IC50 (SW480 [5]; SW480, as listed in Table 3): 0.28 ± 0.02 µM | IC50 (A549 [6]): 0.72 ± 0.11 µM
